The record followed here is article PMC13242511, “Disrupting Notch signalling by a small molecule inhibiting dihydroorotate dehydrogenase activity” (Scientific Reports, 2026).

Values joined by “and” are separate entries in the source; they are usually repeats but may differ in a detail not shown here. Identical values can stand only once. Like-named read-outs stand apart in the source and are kept apart here.

Holding throughout (type): cell-based
One assay deals with γ-secretase complex (Homo sapiens, UniProt P49768). The assay can be described thus: APP-C99 counter assay (GSI reporter assay). More on the design: AUC APP: scale not given here. The settings on record: for AUC 9p APP-counter assay / AUC. 14p APP-counter assay: AUCs averaged when replicates available; for AUC APP: area under the 14-point dose-response curve, replicates averaged; for APP assay: overview in comparison to compound C, Supplemental Fig. 9; for remaining activity at 10 µM / activity at 10 µM / remaining activity at 25 µM / remaining activity at […]: 24 h; for remaining activity at 10 µM / remaining activity at 25 µM / remaining activity at […]: APP-C99 counter assay, read-out: 3p-DR in % of DMSO counter; for activity at 10 µM: sheet conf vs counter 10 µM, read-out: Counter screen (Hek APP-C99); for remaining activity at […]: 1,25µM. Put shortly: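 γ-secretase activity reported via APP cleavage driving firefly luciferase, normalized to renilla. After 24 h transfection then 24 h compound exposure, signals were read (0.1 s integration). Triplicate dose–responses fitted by variable-slope four-parameter model for IC50; area under curve also derived.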
A general note: A reporter such as luciferase makes a cellular process visible.

In assay [1] the test system is Notch downstream genes in tumour cell lines. The assay can be described thus: Three dose response gene expression analysis (qRT-PCR), panel of cell lines. The settings on record: for Notch targets: overview in comparison to compound C, Supplemental Fig. 9; for gene expression: summary Fig. 8E. More on the design: key to gene expression: + indicates that the compound had an effect; -: − indicates that there was no significant effect in the respective assay. The protocol:
Total RNA from cell lines was isolated using the RNeasy Mini kit (cat #74104, Qiagen), according to the manufacturer’s instructions. qRT-PCR was performed as described elsewhere[51] with some minor modifications: RNA was reverse transcribed to cDNA using iScript Reverse Transcription Supermix (cat # 1708841, Bio-rad). cDNA was then diluted 1:5 in nuclease free H20. qRT-PCR was performed on a C1000 Touch thermal cycler (Bio-rad) and gene expression was detected with SsoAdvanced Universal SYBR Green Supermix (cat # 1725274, Bio-rad). Gene expression was determined by normalizing to GAPDH mRNA expression levels and fold expression change was calculated using the ΔΔCT method (ΔΔCT = ΔCt sample − Δct control). Primers used in qPCR are shown in Supplemental Table 9.
Adherent breast cancer cells were seeded in 24-well cell culture plates (ThermoFisher, Nunc, Delta surface, cat #144530) and T-ALL cells growing in suspension (Jurkat, RPMI-8402) were seeded in non-adherent 24-well plates (ThermoFisher, Nunc, cat […]). 60.000 cells were seeded and treated with 0.1, 1 and 10 µM of each compound. […] Cells were harvested 24 h post treatment and RNA isolation and gene expression analysis (qRT-PCR) was performed as described above.

Another assay has as its system C2C12 cells. The assay can be described thus: C2C12 myogenic assay. More on the design: key to myogenic assay: + indicates that the compound had an effect; -: − indicates that there was no significant effect in the respective assay; key to mean fusion index: ratio of nuclei fused per area to total nuclei in field. The settings on record: for mean MFI / ratio MFI/MBI: MYH4; for ratio nuclei % / ratio MFI/MBI: single images; for myogenic diff.: overview in comparison to compound C, Supplemental Fig. 9; for MYH4 (MFI) / fusion index, % of DMSO control: Fig. 5, equals mean of the two '% of control' values of the 4th table; for myogenic assay: summary Fig. 8E. From the text: To corroborate their status as Notch inhibitors, we tested four of the five compounds (A, C, D, E) in an orthogonal assay for Notch function. Notch signalling plays an important role in myogenic differentiation, and blocking Notch signalling promotes myogenic differentiation in the myoblast cell line C2C12[27] (Fig. 5A). C2C12 cells can be maintained as myoblasts but upon serum starvation spontaneously differentiate to MYH4-positive multinucleated myotubes, a process which is accelerated by Notch blockade.
8000 C2C12 cells were seeded on gelatin (0.1%, Sigma-Aldrich, cat #G2500) coated cover slides (BD Bioscience) and cultivated in proliferation medium. For gelatin coating, 8-well cover slide chambers (BD Bioscience) were incubated for 60 min with 0.1% gelatin in PBS. The remaining liquid was aspirated, and gelatin was allowed to dry for 24 h. Cover slides were stored at 4 °C until use. Upon reaching 85% confluence cell culture medium was exchanged to differentiation medium to enhance differentiation into myocytes/myotubes. Cells were then treated with 10 µM of the respective compound for five days and DMSO-treated cells served as a base-line control. Next, cells were washed with 1 × cold PBS (ThermoFisher, cat #10010023) fixed with 4% paraformaldehyde (PFA, Sigma-Aldrich, cat #1.00496) in PBS for 10 min at room temperature and washed again with 1 × PBS. Fixed cells were either stored at 4 °C in PBS or directly processed for immunocytochemistry staining: For immunocytochemistry, cells were permeabilized for 10 min in 0.1% TritonX-100 / PBS, then washed in PBS and unspecific bindings sites were blocked in protein free blocking solution (DAKO, cat # × 0909) for 30 min at room temperature, followed by two times washing in PBS. Then, cells were incubated with primary antibody MYH4 (ThermoFisher) in blocking solution and 0.1% TritonX-100 in PBS for 1 h at room temperature. Next, cells were washed three times in PBS and incubated with secondary Alexa fluorophore coupled antibody (Invitrogen) in a 1:400 dilution. Labeling of F-actin filaments was conducted by phalloidin-TRITC (Sigma-Aldrich, cat # P1951) in a 1:2500 dilution. Cells were washed three times in PBS and incubated with DAPI (BD Bioscience cat # 564907) for 5 min at room temperature to stain DNA/nuclei. Finally, slides were fixed with mounting medium (ProLong Antifade mounting medium, ThermoFisher, cat #P36934). Bright field and immunocytochemistry images were taken using the SP8 LSM (Leica) at different magnifications and images were recorded as Z-stacks. Images were processed using the FijI (ImageJ) software. As controls, wells with and without differentiation medium were also stained to set the baseline and contrast the differences and stainings of cells with only secondary antibodies were used as negative controls to assess cross-reactivity and background staining. For calculating the MYH4 median fluorescence intensity (MFI) images have been converted into 8-bit greyscale and a standard color threshold was applied (ImageJ). Next, MFI signals per area were measured using ImageJ and divided by the median background intensity (MBI). The nuclei fusion index was calculated as the ratio of nuclei fused per area divided by the total number of nuclei in the field. A minimum of three images has been recorded for the calculations, and two replicate experiments were conducted. For calculations of MFI and fusion index see Supplemental Table 5.

[2] abbreviates: 14p APP assay DR, Notch inhibitor controls, no bottom constraint named.
Setting [3] is: 10 µM, five days, DMSO ctrl = 100, experiments #1 and #2.
Where [4] appears, read: 10 µM, five days, experiments #1 and #2.
[5] abbreviates: 10 µM, five days, experiments #1 and #2, listed as GSI.
The mark [6] stands for this setting: 14p APP assay DR, bottom constrained to Emax of positive control LY-411575.

Regarding `CC(C)(C)c1ccc(Oc2ccc(N)cn2)cc1` [CB-103, reference compound], at γ-secretase complex (9p dose response), the “Hill-Slope 9p APP counter assay averaged” value is -2.0 and the “AUC 9p APP-counter assay” value is given as 3.16E+02. Also, the curve fit information result at γ-secretase complex (setting [2]) is given as “IC50 indeterminate”. On γ-secretase complex (14p dose response), the “AUC. 14p APP-counter assay” value stood at 5.48E+02. Moreover, on γ-secretase complex, the “AUC APP” value worked out at 548.4 and the APP assay result is “weak potency”. For the same molecule, the Notch targets entry in assay [1] was “condition dependent”. Further, the “expression of the differentiation marker MYH4” value with C2C12 cells (10 µM, five days) was “increased MYH4 levels, although not reaching statistical significance”. Further, in the assay with C2C12 cells (setting [3]), the “mean MFI in % of control” value is 378.0 % of control and 227.3 % of control. In addition, in the assay on C2C12 cells (setting [4]), the “mean MFI” value is 3.6 and 4.6; the mean fusion index is 5.7 and 3.1; the ratio nuclei % is 5.0% and 6.3% and 5.7% and 3.1%. Further, the myogenic diff. result in the assay on C2C12 cells is given as “no”.

Turning to `C[C@H](NC(=O)Cc1cc(F)cc(F)c1)C(=O)N[C@H](C(=O)OC(C)(C)C)c1ccccc1` [DAPT, reference compound], the “Hill-Slope 9p APP counter assay averaged” value on γ-secretase complex (9p dose response) is listed as -2.8. At γ-secretase complex (9p dose response), the “AUC 9p APP-counter assay” value is listed as 3.64E+02. In addition, the IC50 was 2.5 µM at γ-secretase complex (9p dose response, averaged, read-out: 9p APP counter assay averaged IC50s); 2.5 µM at γ-secretase complex (9p dose response, read-out: approximated IC50s 9p APP counter assay); 0.4 µM at γ-secretase complex (14-point, unit inferred, some fits outside of tested concentration range, read-out: approximated IC50s 14p APP-counter assay); 5.2 µM on γ-secretase complex (14p APP assay DR, Notch inhibitor controls, no bottom constraint named, read-out: approximated IC50); 5.2 µM on γ-secretase complex (14p dose response, single replicates, read-out: approximated IC50s 14p APP counter assay averaged); 5.2 µM at γ-secretase complex (14p dose response, averaged over replicates, read-out: 14p APP counter assay averaged IC50s). Also, the “9p APP counter assay averaged IC50s (log)” value on γ-secretase complex (9p dose response, log10 of averaged IC50) is on record as -5.6. Moreover, at γ-secretase complex (setting [2]), the curve fit information result is listed as “IC50 indeterminate”. Also, the “AUC. 14p APP-counter assay” value at γ-secretase complex (14p dose response) is recorded as 5.80E+02. The “AUC APP” value on γ-secretase complex is given as 580.4. In addition, on γ-secretase complex, the APP assay entry is listed as “higher potency”.

`CC(C)(C(=O)NCC(F)(F)C(F)(F)F)C(=O)N[C@@H]1C(=O)Nc2ccccc2-c2ccccc21` [RO4929097, reference compound]: on γ-secretase complex (9p dose response), the “Hill-Slope 9p APP counter assay averaged” value is reported as -1.5 and the “AUC 9p APP-counter assay” value is given as 2.88E+02. Also, on γ-secretase complex (14p dose response), the “AUC. 14p APP-counter assay” value is 5.27E+02. In addition, on γ-secretase complex, the “AUC APP” value was 527.4 and the APP assay entry is listed as “higher potency”. The “HES1 and HES4 target gene expression” value in assay [1] (across the panel of cell lines) was “consistently reduced”. Besides, in assay [1], the Notch targets entry is given as “condition dependent”. Also, in the assay with C2C12 cells (10 µM, five days), the “expression of the differentiation marker MYH4” value is reported as “elevated expression”. For the same molecule, the “mean MFI in % of control” value in the assay with C2C12 cells (10 µM, five days, DMSO ctrl = 100, experiments #1 and #2, listed as GSI) was 296.5 % of control and 351.1 % of control. Besides, in the assay with C2C12 cells (setting [5]), the “mean MFI” value was 5.5 and 3.6; the mean fusion index was 6.7 and 4.2; the ratio nuclei % was 6.3% and 6.4% and 7.6% and 4.9% and 3.4%. In addition, the myogenic diff. result with C2C12 cells is “yes”.

Consider `CCc1c(C(=O)N(C)Cc2cnn(C(C)C)c2)[nH]c2ccccc12` [compound A], for which, at γ-secretase complex (14-point dose-response, Supplemental Fig. 4J), the “effect in the APP assay” value was “showed an inhibitory effect at high concentrations”. At γ-secretase complex (14p APP assay DR, bottom constrained to Emax of positive control CB-103), this molecule came in with a Hill-slope of -1.6. Besides, on γ-secretase complex (setting [6]), the Hill-slope is -1.6. On γ-secretase complex, the remaining activity at 10 µM was 71.4%, the activity at 10 µM was determined as 71.3%, the remaining activity at 25 µM was 62.2% and the remaining activity at […] amounted to 75.7%. The “AUC APP” value at γ-secretase complex is 658.8. Moreover, the gene expression result in assay [1] was “-”. Also, in the assay on C2C12 cells (10 µM, five days), the “expression of the differentiation marker MYH4” value is recorded as “elevated expression”; the “MYH4 (MFI)” value was 476.6; the “fusion index, % of DMSO control” value amounted to 210.8. Further, the “mean MFI in % of control” value in the assay on C2C12 cells (setting [3]) was 469.2 % of control. In the assay with C2C12 cells (setting [4]), the “mean MFI” value is 7.4 and 5.9; the “ratio MFI/MBI” value is 6.1 and 6.4 and 7.3 and 7.5 and 5.2; the mean fusion index was 4.1 and 7.3; the ratio nuclei % was 2.9% and 4.4% and 7.7% and 8.1% and 6.0% and 5.0%. Also, in the assay on C2C12 cells (Mus musculus, C2C12, 120 h, 10 µM, five days, DMSO ctrl = 100, experiments #1 and #2, read-out: mean MFI in % of control), the activity at 10 µM was 484%. Also, the myogenic assay result in the assay on C2C12 cells is “+”.

On to `Cc1ccc2[nH]c3c(c2c1)CCOC31CCN(Cc2ccccc2-c2ccccc2)CC1` [compound B], for which, at γ-secretase complex, the remaining activity at 10 µM stood at 113%, the remaining activity at 25 µM turned out to be 149%, the remaining activity at […] is 100% and the “AUC APP” value is 643.8. The gene expression entry in assay [1] is listed as “+”. Also, the myogenic assay entry in the assay on C2C12 cells is on record as “-”.

Take `COc1cccc(CNc2ccc(N3CCCCC3)cc2)c1OCc1cccs1` [compound C]: the Hill-slope on γ-secretase complex (setting [6]) is on record as 0.0377. At γ-secretase complex, the remaining activity at 10 µM was 150%, the activity at 10 µM turned out to be 150%, the remaining activity at 25 µM is 152% and the remaining activity at […] came to 157%. Also, at γ-secretase complex, the “AUC APP” value is given as 731.3. In addition, in assay [1], the Notch targets entry was “condition dependent” and the gene expression result is recorded as “+”. In addition, in the assay with C2C12 cells (10 µM, five days), the “expression of the differentiation marker MYH4” value is reported as “elevated expression”; the “MYH4 (MFI)” value is listed as 331.0; the “fusion index, % of DMSO control” value is listed as 268.7. For the same molecule, the “mean MFI in % of control” value in the assay with C2C12 cells (setting [3]) was 343.9 % of control and 318.1 % of control. Besides, in the assay with C2C12 cells (setting [4]), the “mean MFI” value stood at 4.2; the “ratio MFI/MBI” value was 4.0 and 4.4; the mean fusion index was determined as 5.3; the ratio nuclei % is 3.3% and 7.3%. In the assay with C2C12 cells, the myogenic diff. result is “yes” and the myogenic assay entry is on record as “+”.
